{
  "source": "paper PMC11351612",
  "about": "“Heteronuclear Complexes with Promising Anticancer Activity against Colon Cancer” (Biomedicines, 2024)",
  "key": {"[1]": {"system": "thioredoxin reductase (TrxR)", "conditions": "undifferentiated Caco-2/TC7, IC50 concentration, 24 h incubation", "description": "The Caco-2 cell line (TC7 clone) was seeded in a 25 cm^2 flask (2 × 10^6). […] The procedural guidelines of the supplied kit were followed. […] The outcomes were presented as a percentage representing the TrxR activity relative to the control."}, "[2]": {"system": "pIRES2-EGFP (5308 pb) plasmid DNA", "assay": "Gel electrophoretic mobility of plasmid DNA", "format": "binding", "conditions": "metal-to-base pair ratios 0.5, 1, 2; 0.8% agarose gel", "description": "Adducts with pIRES2-EGFP (5308 pb) plasmid DNA (Catalog #6029-1) were prepared by adding the required volume of a freshly prepared solution of metal complexes in MilliQ water. The concentration of pIRES2-EGFP in the reaction mixture was 117 ng/µL, and the complexes’ concentration was varied to give different metal-to-base pair stoichiometries (0.5, 1 and 2). The mobility of the metal complex-treated pIRES2-EGFP samples was analysed by gel electrophoresis on a 0.8% (w/v) agarose gel (Boehringer-Mannheim, Mannheim, Germany) at […] at 25 °C in Tris-acetate/EDTA buffer. The gel was stained for 30 min in […] (w/v) ethidium bromide and the bands were visualised with a UVP gel scanner.\nIn addition, the interaction of both complexes with DNA was also studied by their ability to modify the electrophoretic mobility of the pIRES2-EGFP (5308 pb) plasmid DNA and compared to cisplatin (Figure 7)."}, "[3]": {"assay": "Solubility in water at 25 °C"}, "Caco-2/PD7 cells": {"system": "Caco-2/PD7 cells", "assay": "Annexin V/propidium iodide apoptosis assay, Caco-2/PD7", "format": "cell-based, human", "conditions": "Caco-2/PD7, IC50 concentration, 72 h; control 35.8%", "description": "Study of cell death. After the appropriate incubation, cells were collected and stained with annexin V-FTIC, according to the manufacturer’s instructions. A negative control was prepared, containing unreacted cells to define the basal level of apoptotic and necrotic or dead cells. After incubation, the cells were transferred to flow-cytometry tubes and washed twice with temperate phosphate-buffered saline (PBS), suspended in 100 μL annexin V binding buffer (10 mM Hepes/NaOH, pH 7.4, 140 mM NaCl, 2.5 mM CaCl2), then 5 μL of annexin V-FITC, and 5 μL of PI was added to each 100 μL of cell suspension. After incubation for 15 min at room temperature in the dark, 400 μL of 1× annexin binding buffer was added and analysed by flow cytometry within one hour. The signal intensity was measured using a FACSARIA BD and analysed using FASCDIVA BD.\nThis inhibition of apoptosis produces a fast growth and proliferation of cancerous cells. The population of early and late apoptotic cells increased to 35% after treatment with complex 1 in comparison with the vehicle-treated cells (12%). […] Additionally, the effect observed after treating the cells with a dosage equal to the IC50 concentration is time-dependent. […]"}},
  "data": [
    {"substance": "[Cu{Au(Spy)(PTA)}2]PF6 [compound 1]", "values": [
      {"measurement": "Effect on TrxR activity", "setting": "[1]", "result": "inhibited TrxR activity"},
      {"measurement": "Effect on electrophoretic mobility of plasmid DNA", "setting": "[2]", "result": "significant effect on the mobility"},
      {"measurement": "S 25 °C, H2O", "setting": "[3]", "result": "< 0.5", "unit": "g/L"},
      {"measurement": "Apoptotic cells (early + late apoptosis)", "setting": "Caco-2/PD7 cells", "result": 62.4, "unit": "%"}
    ]}
  ]
}
